Results published in paper PMC2033546, “Effects of somatostatin analogue RC-160 and bombesin/gastrin-releasing peptide antagonists on the growth of human small-cell and non-small-cell lung carcinomas in nude mice” (British Journal of Cancer, 1994).

Legend:
[1] = tested on: human SCLC cell line NCI-H69; assay: Growth of H69 SCLC xenografts in nude mice; type: in vivo, human (xenograft in male athymic nude mice)
From the text: (§1) Br. J. Cancer (1994). 70, 886 892 ? Macmillan Press Ltd.. […] Bombesin GRP antagonists. […] Lung carcinoma is the leading cause of cancer-related deaths in the western world. It is estimated that in 1992 there were approximately 168,000 new cases of lung cancer in the US and that about 146,000 deaths occurred from this disease (Boring et al., 1992). […] The growth factors such as bombesin/gastrin-releasing pep- tide (GRP), epidermal growth factor, (EGF), transforming growth factor a (TGF-x) and insulin-like growth factor I(IGF-I) appear to play a role in the proliferation and pro- gression of lung cancer (Cuttitta et al., 1985; Veale et al., 1987; Minuto et al., 1988; Siegfried & Owens, 1988; Macaulay et al., 1990; Tateishi et al., 1991; Damstrup et al., 1992; Sethi & Rozengurt, 1992; Rabiasz et al., 1992; Moody & Cuttitta, 1993). […] Tpi is 2,3,4,9-tetrahydro- Correspondence: A.V. Schally (151). VA Medical Center, 1601 Per- dido Street. New Orleans, LA 70146. USA. Received 1 March 1994; and in revised form 5 July 1994. Br. J. Cancer (1994), 70, 886-892 C Macmillan Press Ltd., 1994 PEPTIDE ANALOGUES IN LUNG CANCER 8U7 lH-pyrido [3,4bjindol-3-carboxylic acid, a conformationally constrained secondary amine derivate of tryptophan and Tac is thiazolidine-4-carboxylic acid. […] Animals Male athymic NCr nulmu nude mice, approximately 6 weeks old on arrival, were obtained from the NCI (Bethesda, MD, USA) and maintained under pathogen-limited conditions. Cell lines The human SCLC cell line NCI-H69, was obtained from the American Type Cell Culture (ATCC), Rockville, MD, USA and the non-SCLC cell line NCI-H157, from Dr H. Oie, NCI-Navy Medical Oncology Branch, Bethesda, MD, USA. These cell lines were cultured in RPMI-1640 medium supple- mented with 4 mM L-glutamine, 50 units ml-I penicilln G sodium, SOigml-' streptomycin sulphate, 0.125pgml-' amphotericin B and 10% fetal bovine serum at 3TC in a humidified 95% air/5% carbon dioxide atmosphere. CeLs were passaged weekly and routinely monitored for myco- plasma contamination using a detection kit (Boehringer- Mannheim, Mannheim, Germany). All culture media com- ponents were purchased from Gibco (Grand Island, NY, USA). Receptor assays Preparation of membranes for receptor studies was described previously (Halmos et al., 1993). Iodinated EGF and IGF-I were purchased from Amersham (Arlington Heights, IL, USA). Radioiodination of other peptides and receptor bind- ing of EGF, IGF-I, somatostatin and bombesin/GRP were performed as previously described (Srkalovic et al., 1989; Szepeshazi et al., 1992). Complete displacement assays on tumour membranes were done only once because of the shortage of tumour material. The LIGAND PC computerised curve-fitting programme of Munson and Rodbard (1980) was used to determine the types of receptor binding, dissociation constant (Kd) values, and the maximal binding capacity (BDj) of receptors. In order to determine the specificity of the binding sites for radiolabelled EGF, IGF-I, somatostatin and bombesin to lung cancer membranes, various structuraly related and unrelated peptides were tested for their ability to inhibit the binding of the tracers. Histological procedure The histological procedures were the same as described previously (Szepeshazi et al., 1991, 1992). The number of mitotic and apoptotic cells per 1,000 cells was determined, and the percentage area of necrosis in tumour sections was examined using the point-counting method (Szepeshazi et al., 1991, 1992), in which the crossing points of an ocular net that coincide with necrosis in various sections are counted. Radiommunoassays Serum levels of growth hormone were determined by double- antibody radioimmunoassay (RIA) using materials supplied by the National Hormone and Pituitary Program of the National Institute of Diabetes and Digestive and Kidney Diseases (NIDDK).

[2] = tested on: non-SCLC cell line NCI-H157; assay: Growth of H157 non-SCLC xenografts in nude mice; type: in vivo, human (xenograft in male athymic nude mice); details: RC-160 100 µg/day, RC-3095 20 µg/day
From the text: as §1

[3] = tested on: SCLC H69 tumours; assay: Histology (mitosis, apoptosis, necrosis) of SCLC H69 tumours; type: in vivo, human (xenograft in nude mice)
From the text: as §1

[4] = tested on: EGF receptors in membranes of SCLC H69 tumours; assay: EGF receptor binding on H69 tumour membranes after in vivo treatment; design: species or system human; details: Table IV, Experiment I (SCLC-H69); tumour membranes after in vivo treatment; control 278; ten-point displacement in triplicate tubes, done once
From the text: as §1, with “In order to determine the specificity of the binding sites for radiolabelled EGF, IGF-I, somatostatin and bombesin to lung cancer membranes, various structuraly related and unrelated peptides were tested for their ability to inhibit the binding of the tracers. Histological procedure The histological procedures were the same as described previously (Szepeshazi et al., 1991, 1992).” left out

[5] = tested on: EGF receptors in membranes of non-SCLC H157 tumours; assay: EGF receptor binding on H157 tumour membranes after in vivo treatment; design: species or system human
From the text: as §1, with “Receptor assays Preparation of membranes for receptor studies was described previously (Halmos et al., 1993). Iodinated EGF and IGF-I were purchased from Amersham (Arlington Heights, IL, USA). Radioiodination of other peptides and receptor bind- ing of EGF, IGF-I, somatostatin and bombesin/GRP were performed as previously described (Srkalovic et al., 1989; Szepeshazi et al., 1992). Complete displacement assays on tumour membranes were done only once because of the shortage of tumour material. The LIGAND PC computerised curve-fitting programme of Munson and Rodbard (1980) was used to determine the types of receptor binding, dissociation constant (Kd) values, and the maximal binding capacity (BDj) of receptors. In order to determine the specificity of the binding sites for radiolabelled EGF, IGF-I, somatostatin and bombesin to lung cancer membranes, various structuraly related and unrelated peptides were tested for their ability to inhibit the binding of the tracers. Histological procedure The histological procedures were the same as described previously (Szepeshazi et al., 1991, 1992).” left out

[6] = tested on: IGF-I receptors in membranes of SCLC H69 tumours; assay: IGF-I receptor binding on H69 tumour membranes after in vivo treatment; design: species or system human; details: Table IV, Experiment I (SCLC-H69), control 294, done once
From the text: as §1, with “Receptor assays Preparation of membranes for receptor studies was described previously (Halmos et al., 1993). Iodinated EGF and IGF-I were purchased from Amersham (Arlington Heights, IL, USA). Radioiodination of other peptides and receptor bind- ing of EGF, IGF-I, somatostatin and bombesin/GRP were performed as previously described (Srkalovic et al., 1989; Szepeshazi et al., 1992). Complete displacement assays on tumour membranes were done only once because of the shortage of tumour material. The LIGAND PC computerised curve-fitting programme of Munson and Rodbard (1980) was used to determine the types of receptor binding, dissociation constant (Kd) values, and the maximal binding capacity (BDj) of receptors. In order to determine the specificity of the binding sites for radiolabelled EGF, IGF-I, somatostatin and bombesin to lung cancer membranes, various structuraly related and unrelated peptides were tested for their ability to inhibit the binding of the tracers. Histological procedure The histological procedures were the same as described previously (Szepeshazi et al., 1991, 1992).” left out

[7] = tested on: IGF-I receptors in membranes of non-SCLC H157 tumours; assay: IGF-I receptor binding on H157 tumour membranes after in vivo treatment; design: species or system human
From the text: as §1, with “Receptor assays Preparation of membranes for receptor studies was described previously (Halmos et al., 1993). Iodinated EGF and IGF-I were purchased from Amersham (Arlington Heights, IL, USA). Radioiodination of other peptides and receptor bind- ing of EGF, IGF-I, somatostatin and bombesin/GRP were performed as previously described (Srkalovic et al., 1989; Szepeshazi et al., 1992). Complete displacement assays on tumour membranes were done only once because of the shortage of tumour material. The LIGAND PC computerised curve-fitting programme of Munson and Rodbard (1980) was used to determine the types of receptor binding, dissociation constant (Kd) values, and the maximal binding capacity (BDj) of receptors. In order to determine the specificity of the binding sites for radiolabelled EGF, IGF-I, somatostatin and bombesin to lung cancer membranes, various structuraly related and unrelated peptides were tested for their ability to inhibit the binding of the tracers. Histological procedure The histological procedures were the same as described previously (Szepeshazi et al., 1991, 1992).” left out

[8] = tested on: Bombesin/GRP receptors in membranes of SCLC H69 tumours; assay: Bombesin/GRP receptor binding on H69 tumour membranes after in vivo treatment; design: species or system human; details: after in vivo treatment
From the text: as §1, with “In order to determine the specificity of the binding sites for radiolabelled EGF, IGF-I, somatostatin and bombesin to lung cancer membranes, various structuraly related and unrelated peptides were tested for their ability to inhibit the binding of the tracers. Histological procedure The histological procedures were the same as described previously (Szepeshazi et al., 1991, 1992).” left out

[9] = tested on: Somatostatin receptors in membranes of SCLC H69 tumours; assay: Somatostatin receptor binding on H69 tumour membranes after in vivo treatment; design: species or system human; details: Table IV, Experiment I (SCLC-H69); tumour membranes after in vivo treatment; control 450; done once
From the text: as §1, with “In order to determine the specificity of the binding sites for radiolabelled EGF, IGF-I, somatostatin and bombesin to lung cancer membranes, various structuraly related and unrelated peptides were tested for their ability to inhibit the binding of the tracers. Histological procedure The histological procedures were the same as described previously (Szepeshazi et al., 1991, 1992).” left out

[10] = tested on: EGF receptor levels in tumour membranes (pancreatic, prostatic, mammary and colorectal cancers); details: associated with inhibition of growth of pancreatic, ref Radulovic et al., 1991b, Szepeshazi et al., 1991, 1992, Pinski et al., 1994a; cited from earlier work
From the text: (§2) Br. J. Cancer (1994). 70, 886 892 ? Macmillan Press Ltd..

[11] = tested on: EGF receptors; details: various cancer lines and cancer specimens; ref Liebow et al., 1992; cited from earlier work
From the text: as §2

[12] = tested on: human SCLC cell line H69; assay: [3H]Thymidine incorporation assay in H69 cells; type: cell-based; details: 3 days; for [3H]thymidine incorporation into DNA of H69 cells (in words): RC-160 0.001 to 10.0 µg/ml, 5 days, RC-3005 or RC-3009 5.0 and 25.0 µg/ml; for [3H]Thymidine incorporation: Table V, mean s.e.
From the text: as §1

[13] = tested on: IGF-I levels; details: patients with SCLC; ref Macauley et al. (1991); cited from earlier work
From the text: as §2

[D-Tpi6, Leu'3, *(CH2NH)Leu'4] bombesin (6- 14) [RC-3095]
Tumour volume, final ([1]; Table I, Experiment I (SCLC-H69), 5 weeks s.c. peritumoral, RC-160 100 µg/day, RC-3440, RC-3095, RC-3950-II 20 µg/day per animal, control 249.7 ? 182.3, means ? s.d., ten animals per group, *P<0.05 vs control): 80.2 mm³ | Tumour weight ([1]; Table I, Experiment I (SCLC-H69), 5 weeks s.c. peritumoral, RC-160 100 µg/day, antagonists 20 µg/day per animal, control 0.27 ? 0.19, means ? s.d., *P<0.05 vs control): 0.081 0.06* g | Tumour doubling time ([1]; Table I, Experiment I (SCLC-H69), 5 weeks, RC-160 100 µg/day, antagonists 20 µg/day per animal s.c., control 7.5): 12.2 days | Growth of H69 SCLC tumours (in words) ([1]; s.c. peritumorally, RC-160 100 µg, bombesin/GRP antagonists 20 µg per animal per day, 5 weeks): inhibited the growth of H69 SCLC tumours | Growth of H157 non-SCLC tumours (in words) ([2]; 4 weeks s.c., SB-75 100 µg/day per animal, vs control): No significant reduction in final tumour volume, tumour weight and tumour growth | Tumour volume, final ([2]; Table I, Experiment II (non-SCLC H157), 4 weeks s.c. peritumoral, SB-75 100 µg/day per animal, control 1580.3 ? 455.7, means ? s.d., ten animals per group, *P<0.05 vs control): 913 mm³ | Tumour doubling time ([2]; Table I, Experiment II (non-SCLC H157), 4 weeks s.c., SB-75 100 µg/day, control 3.88): 4.42 days | Extent of necrosis (in words) ([3]; SCLC H69 tumours, point-counting method, differences from control not significant statistically): less exten- sive | Apoptotic index ([3]; Table II, Experiment I (SCLC H69), apoptotic cells per 1,000 cells, control 35.4 ? 2.6, means ? s.e.): 36.5 | Mitotic index ([3]; Table II, Experiment I (SCLC H69), mitotic cells per 1,000 cells, control 37.9 ? 2.9, means ? s.e., *P < 0.05 vs control): 28.8 | EGF maximal binding capacity (Bmax) [4]: 102 fmol mg' protein | EGF maximal binding capacity (Bmax) ([5]; Table IV, Experiment II (non-SCLC H157), tumour membranes after in vivo treatment, control 249, done once): 207 fmol mg' protein | EGF binding capacity on H157 tumours (in words) ([5]; after in vivo treatment): no effect | IGF-I maximal binding capacity (Bmax) [6]: 300 fmol mg' protein | IGF-I maximal binding capacity (Bmax) ([7]; Table IV, Experiment II (non-SCLC H157), tumour membranes after in vivo treatment, control 257, done once): 270 fmol mg' protein | IGF-I binding sites on H157 tumours (in words) ([7]; after in vivo treatment): no effect | Concentration of receptors for bombesin/GRP on H69 tumours (in words) [8]: reduced to non-detectable levels | Somatostatin maximal binding capacity (Bmax) [9]: 480 fmol mg-'protein | EGF receptor levels in tumour membranes (in words) [10]: major decrease in EGF receptor levels | Effect on phosphorylation of EGF receptors (in words) [11]: inhibits these effects

D-Trp23, D-Phe5, Leu27- GRP(14-27) [RC-3009]
[3H]thymidine incorporation into DNA of H69 cells (in words) [12]: significantly suppressed | [3H]Thymidine incorporation ([12]; 1.0 µg/ml): 98.4 0.8 per cent of control | [3H]Thymidine incorporation ([12]; 5.0 µg/ml, *P<0.05 vs control): 92.7 2.0* per cent of control

His(Bz)2D, D-Trp23, D-Phe2, Leu'- GRP(14-27) [RC-3005]
[3H]thymidine incorporation into DNA of H69 cells (in words) [12]: significantly suppressed | [3H]Thymidine incorporation ([12]; 1.0 µg/ml): 100.0 2.0 per cent of control

octreotide
IGF-I levels (in words) [13]: reduced IGF-I levels
